This note sets out measurements from BindingDB's records for doi:10.1021/jm970373j (Parke-Davis Pharmaceutical Research, 1998).

For this assay, the target named is Gastrin/cholecystokinin type B receptor (Cavia porcellus). Nature of the assay: Compound was evaluated for functional activity on Cholecystokinin type B receptor (CCK-B) receptor carried out on guinea pig stomach cells.
As for `CCOC(=O)c1cccc(NC(=O)NNc2nc3ccccc3c(=O)n2-c2cccc(OC(C)C)c2)c1` [N-(3-ethylesterbenzoicacid)-2-[3,4-dihydro-3-[(3-Isopropoxy)phenyl]-4-oxo-2-quinazolinyl]hydrazinecarboxamide], half-maximal inhibition (IC50) required 22 nM. This lies in the double-digit nanomolar range.

As for `CCOC(=O)c1cccc(NC(=O)NNc2nc3ccccc3c(=O)n2-c2ccc(Cl)cc2)c1` [N-(3-ethylesterbenzoicacid)-2-[3,4-dihydro-3-[(4-chloro)-phenyl]-4-oxo-2-quinazolinyl]hydrazinecarboxamide], the IC50 – broadly, the midpoint of a concentration-inhibition curve – is 33 nM.

Regarding `CC(C)Oc1cccc(-n2c(NNC(=O)Nc3ccc(Br)cc3)nc3ccccc3c2=O)c1` [N-(4-Bromophenyl)-2-[3,4-dihydro-3-[3-(1-methylethoxy)phenyl]-4-oxo-2-quinazolinyl]hydrazinecarboxamide], the midpoint of inhibition, the IC50, lay at 54 nM.
